Experimental data: PubChem BioAssay AID1963826 (Molecular Pharmacology Branch, DTP, NCI, 2024)

Test system: 926638-142-R-J1-PDC complex spheroid viability
Test: Anticancer human tumor 926638-142-R-J1-PDC patient-derived endometrial carcinoma cell line growth inhibition [POLQ]
Details: for IC50: curve of first compound; for viability, T/C: stronger effect = lower value
In short: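 Patient-derived tumour cells were co-cultured with HUVEC and mesenchymal stem cells as multicellular spheroids at 37 °C. They were treated with POLQ inhibitors (novobiocin, ART-558, RP6685) alone or combined with other agents. Top concentrations were at or near clinical Cmax (otherwise 10 microM; SN-38 at 1 microM), decreasing in half-log steps.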

[1] = second compound 0.0316 µM, first compound 0.0316 µM
[2] = second compound 0.0316 µM, first compound 0.1 µM
[3] = second compound 0.0316 µM, first compound 0.316 µM
[4] = second compound 0.0316 µM, first compound 1 µM
[5] = second compound 0.0316 µM, first compound 3.16 µM
[6] = second compound 0.0316 µM, first compound 10 µM
[7] = second compound 0.1 µM, first compound 0.0316 µM
[8] = second compound 0.1 µM, first compound 0.1 µM
[9] = second compound 0.1 µM, first compound 0.316 µM
[10] = second compound 0.1 µM, first compound 1 µM
[11] = second compound 0.1 µM, first compound 3.16 µM
[12] = second compound 0.1 µM, first compound 10 µM
[13] = second compound 0.316 µM, first compound 0.0316 µM
[14] = second compound 0.316 µM, first compound 0.1 µM
[15] = second compound 0.316 µM, first compound 0.316 µM
[16] = second compound 0.316 µM, first compound 1 µM
[17] = second compound 0.316 µM, first compound 3.16 µM
[18] = second compound 0.316 µM, first compound 10 µM
[19] = second compound 1 µM, first compound 0.0316 µM
[20] = second compound 1 µM, first compound 0.1 µM
[21] = second compound 1 µM, first compound 0.316 µM
[22] = second compound 1 µM, first compound 1 µM
[23] = second compound 1 µM, first compound 3.16 µM
[24] = second compound 1 µM, first compound 10 µM
[25] = second compound 3.16 µM, first compound 0.0316 µM
[26] = second compound 3.16 µM, first compound 0.1 µM
[27] = second compound 3.16 µM, first compound 0.316 µM
[28] = second compound 3.16 µM, first compound 1 µM
[29] = second compound 3.16 µM, first compound 3.16 µM
[30] = second compound 3.16 µM, first compound 10 µM
[31] = second compound 10 µM, first compound 0.0316 µM
[32] = second compound 10 µM, first compound 0.1 µM
[33] = second compound 10 µM, first compound 0.316 µM
[34] = second compound 10 µM, first compound 1 µM
[35] = second compound 10 µM, first compound 3.16 µM
[36] = second compound 10 µM, first compound 10 µM
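Also: spheroids exposed to drugs for one week before readout.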
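For viability, T/C in this document: percent viability relative to DMSO vehicle control wells set as 100%.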

## CNCc1ccc(-c2[nH]c3cc(F)cc4c3c2CCNC4=O)cc1 + COC1C(OC(N)=O)C(O)C(Oc2ccc3c(O)c(NC(=O)c4ccc(O)c(CC=C(C)C)c4)c(=O)oc3c2C)OC1(C)C
Second compound 0.0316 µM
  IC50: > 10 µM
Second compound 0.1 µM
  IC50: > 10 µM
Second compound 0.316 µM
  IC50: > 10 µM
Second compound 1 µM
  IC50: > 10 µM
Second compound 3.16 µM
  IC50: > 10 µM
Second compound 10 µM
  IC50: > 10 µM
[1]
  viability, T/C: 92%
[2]
  viability, T/C: 82.2%
[3]
  viability, T/C: 96%
[4]
  viability, T/C: 81%
[5]
  viability, T/C: 87.7%
[6]
  viability, T/C: 76.7%
[7]
  viability, T/C: 78.9%
[8]
  viability, T/C: 99.9%
[9]
  viability, T/C: 77.2%
[10]
  viability, T/C: 89.2%
[11]
  viability, T/C: 80.1%
[12]
  viability, T/C: 81.2%
[13]
  viability, T/C: 90.5%
[14]
  viability, T/C: 81.1%
[15]
  viability, T/C: 84.9%
[16]
  viability, T/C: 90.5%
[17]
  viability, T/C: 101%
[18]
  viability, T/C: 84.6%
[19]
  viability, T/C: 77.3%
[20]
  viability, T/C: 73.9%
[21]
  viability, T/C: 73.8%
[22]
  viability, T/C: 89.9%
[23]
  viability, T/C: 94.8%
[24]
  viability, T/C: 69%
[25]
  viability, T/C: 82.3%
[26]
  viability, T/C: 93.9%
[27]
  viability, T/C: 90.7%
[28]
  viability, T/C: 71.2%
[29]
  viability, T/C: 88.2%
[30]
  viability, T/C: 85.2%
[31]
  viability, T/C: 89.8%
[32]
  viability, T/C: 79.9%
[33]
  viability, T/C: 83.8%
[34]
  viability, T/C: 70.5%
[35]
  viability, T/C: 84.4%
[36]
  viability, T/C: 83%

## Nc1ccn(C2OC(CO)C(O)C2(F)F)c(=O)n1 (stereo unspecified) + COC1C(OC(N)=O)C(O)C(Oc2ccc3c(O)c(NC(=O)c4ccc(O)c(CC=C(C)C)c4)c(=O)oc3c2C)OC1(C)C
Second compound 0.0316 µM
  IC50: 1.01 µM
Second compound 0.1 µM
  IC50: 1.6 µM
Second compound 0.316 µM
  IC50: 0.47 µM
Second compound 1 µM
  IC50: 0.924 µM
Second compound 3.16 µM
  IC50: 0.874 µM
Second compound 10 µM
  IC50: 0.463 µM
[1]
  viability, T/C: 81.7%
[2]
  viability, T/C: 70.2%
[3]
  viability, T/C: 49.4%
[4]
  viability, T/C: 59.7%
[5]
  viability, T/C: 41.4%
[6]
  viability, T/C: 26.2%
[7]
  viability, T/C: 86.2%
[8]
  viability, T/C: 67.3%
[9]
  viability, T/C: 61.6%
[10]
  viability, T/C: 55%
[11]
  viability, T/C: 50.3%
[12]
  viability, T/C: 26.3%
[13]
  viability, T/C: 75.8%
[14]
  viability, T/C: 61.4%
[15]
  viability, T/C: 47%
[16]
  viability, T/C: 52.4%
[17]
  viability, T/C: 36.8%
[18]
  viability, T/C: 33.1%
[19]
  viability, T/C: 81.3%
[20]
  viability, T/C: 70.7%
[21]
  viability, T/C: 56.6%
[22]
  viability, T/C: 45.6%
[23]
  viability, T/C: 48.7%
[24]
  viability, T/C: 28.2%
[25]
  viability, T/C: 79%
[26]
  viability, T/C: 62.8%
[27]
  viability, T/C: 55.8%
[28]
  viability, T/C: 51.4%
[29]
  viability, T/C: 45.7%
[30]
  viability, T/C: 25%
[31]
  viability, T/C: 83.3%
[32]
  viability, T/C: 73.8%
[33]
  viability, T/C: 41.7%
[34]
  viability, T/C: 46.9%
[35]
  viability, T/C: 47.1%
[36]
  viability, T/C: 28.2%

## O=C(c1cc(Cc2n[nH]c(=O)c3ccccc23)ccc1F)N1CCN(C(=O)C2CC2)CC1 + COC1C(OC(N)=O)C(O)C(Oc2ccc3c(O)c(NC(=O)c4ccc(O)c(CC=C(C)C)c4)c(=O)oc3c2C)OC1(C)C
Second compound 0.0316 µM
  IC50: > 10 µM
Second compound 0.1 µM
  IC50: > 10 µM
Second compound 0.316 µM
  IC50: > 10 µM
Second compound 1 µM
  IC50: > 10 µM
Second compound 3.16 µM
  IC50: > 10 µM
Second compound 10 µM
  IC50: > 10 µM
[1]
  viability, T/C: 86%
[2]
  viability, T/C: 115%
[3]
  viability, T/C: 95.5%
[4]
  viability, T/C: 115%
[5]
  viability, T/C: 84.3%
[6]
  viability, T/C: 89.7%
[7]
  viability, T/C: 92.3%
[8]
  viability, T/C: 95.5%
[9]
  viability, T/C: 108%
[10]
  viability, T/C: 95.6%
[11]
  viability, T/C: 89.3%
[12]
  viability, T/C: 76.8%
[13]
  viability, T/C: 92.3%
[14]
  viability, T/C: 95.5%
[15]
  viability, T/C: 101%
[16]
  viability, T/C: 98.1%
[17]
  viability, T/C: 80.3%
[18]
  viability, T/C: 80.1%
[19]
  viability, T/C: 117%
[20]
  viability, T/C: 91.1%
[21]
  viability, T/C: 110%
[22]
  viability, T/C: 97.5%
[23]
  viability, T/C: 80.7%
[24]
  viability, T/C: 89.3%
[25]
  viability, T/C: 98.2%
[26]
  viability, T/C: 102%
[27]
  viability, T/C: 89.4%
[28]
  viability, T/C: 111%
[29]
  viability, T/C: 99.6%
[30]
  viability, T/C: 85.7%
[31]
  viability, T/C: 95.5%
[32]
  viability, T/C: 89.3%
[33]
  viability, T/C: 92.2%
[34]
  viability, T/C: 116%
[35]
  viability, T/C: 83.1%
[36]
  viability, T/C: 96%
